≈ marks a conversion by molar mass, not a printed value.
Tests used:
Zika virus = experiment: Anti-viral activity against ZIKV Argentine strain INEVH116141 infected in african green monkey Vero cells at 0.1 MOI assessed as reduction in virus yield measured after 48 hrs by virus reduction assay; format: functional, organism-based
[1] = Selectivity index, ratio of CC50 for cytotoxicity against African green monkey Vero cells to EC50 for anti-viral activity against DENV-2 Thailand/16681/1984 strain; format: toxicity, cell-based; conditions: read-out: Selectivity Index
[2] = Cytotoxicity against African green monkey Vero cells assessed as cell viability measured after 72 hrs by MTT assay; format: toxicity, cell-based; conditions: chlorocebus sabaeus
[3] = Selectivity index, ratio of CC50 for cytotoxicity against African green monkey Vero cells to EC50 for anti-viral activity against ZIKV Argentine strain INEVH116141; format: toxicity, cell-based; conditions: read-out: Selectivity Index
dengue virus type 2 = experiment: Anti-viral activity against DENV-2 Thailand/16681/1984 strain infected in african green monkey Vero cells at 0.1 MOI assessed as reduction in virus yield measured after 48 hrs by virus reduction assay; format: functional, organism-based; conditions: Thailand/16681/1984, Vero
[4] = Plasma stability in human plasma measured at 4 hrs; format: ADME, cell-free
[5] = Solubility of the compound in phosphate-buffered saline solution (PBS,pH 7.4) incubated for 24 hrs by shake-flask method; format: physicochemical
[6] = Solubility of the compound in simulated intestinal fluid (SIF,pH 6.8) incubated for 24 hrs by shake-flask method; format: ADME
[7] = Permeability of the compound by PAMPA assay; format: ADME
[8] = Plasma stability in mouse plasma measured at 4 hrs; format: ADME, cell-free
[9] = Solubility of the compound in simulated gastric fluid (SGF,pH 1.2) incubated for 24 hrs by shake-flask method; format: ADME

For `Nc1ccc(-c2ccc(Nc3cc(C(F)(F)F)nc(NCCN4CCCCC4)n3)cc2)cc1`, the EC50 (Zika virus) was greater than 10 µM, the selectivity ratio [1] was less than 2 and the CC50 at 72 h [2] was 17.8 µM. It also gave a selectivity ratio [3] of less than 2 and an EC50 (dengue virus type 2) greater than 10 µM.

For `N#Cc1cc(Nc2ccc(-c3ccccc3)cc2)nc(NCCN2CCCCC2)n1`, the EC50 (Zika virus) was 4.31 µM, the selectivity ratio [1] was 3.15 and the CC50 at 72 h [2] was 25.4 µM. The selectivity ratio [3] was 5.89 and the EC50 (dengue virus type 2) was 8.06 µM.

In the case of `FC(F)(F)c1cc(NCc2cccnc2)nc(NCCN2CCCCC2)n1`, the EC50 (Zika virus) is reported as greater than 50 µM, the selectivity ratio [1] is reported as less than 4 and the CC50 at 72 h [2] is reported as greater than 200 µM. For the same compound, the selectivity ratio [3] was less than 4 and the EC50 (dengue virus type 2) was greater than 50 µM.

With `FC(F)(F)c1cc(Nc2ccc(-c3ccccc3)cc2)nc(NCCN2CCCCC2)n1` the EC50 (Zika virus) was 1.11 µM, the Stability [4] was “Stable” and the solubility thermodynamic at 24 h [5] was 4 µg/mL (≈ 9.06 µM). The solubility thermodynamic at 24 h [6] was 10 µg/mL (≈ 22.7 µM), the selectivity ratio [1] was 7.55 and the permeability [7] was “Impermeable”. The Stability [8] was “Stable”, the CC50 at 72 h [2] was 5.74 µM and the selectivity ratio [3] was 5.12. The EC50 (dengue virus type 2) was 0.76 µM and the solubility thermodynamic at 24 h [9] was 506 µg/mL (≈ 1150 µM).

With `CC1(C)CC(Nc2ncnc(Nc3ccc(-c4ccccc4)cc3)n2)CC(C)(C)N1` the CC50 at 72 h [2] was 5.01 µM.

Compound `Cc1ccc(CNc2cc(C(F)(F)F)nc(NCCN3CCCCC3)n2)cc1` has an EC50 (Zika virus) of 13.5 µM, a selectivity ratio [1] of less than 2.5 and a CC50 at 72 h [2] of 49 µM. It also gave a selectivity ratio [3] of 3.63 and an EC50 (dengue virus type 2) greater than 20 µM.

`Nc1ccc(CNc2cc(C(F)(F)F)nc(NCCN3CCCCC3)n2)cc1` showed a CC50 at 72 h [2] of 8.92 µM.

Work on `Fc1cc(Cl)ccc1CNc1cc(C(F)(F)F)nc(NCCN2CCCCC2)n1` yielded a CC50 at 72 h [2] of 9.07 µM.

Compound `CC1(C)CC(Nc2nc(Nc3ccc(-c4ccccc4)cc3)cc(C(F)(F)F)n2)CC(C)(C)N1` has a CC50 at 72 h [2] of 2.06 µM.

With `CC1(C)CC(Nc2nc(Nc3ccc(-c4ccccc4)cc3)c3sccc3n2)CC(C)(C)N1` the EC50 (Zika virus) was 4.15 µM, the selectivity ratio [1] was 1.3 and the CC50 at 72 h [2] was 6.4 µM. For the same compound, the selectivity ratio [3] was 1.54 and the EC50 (dengue virus type 2) was 4.95 µM.

For `FC(F)(F)c1cc(Nc2ccc(Cl)cc2)nc(NCCN2CCCCC2)n1`, the EC50 (Zika virus) was 10 µM, the selectivity ratio [1] was 1.88 and the CC50 at 72 h [2] was 18.8 µM. It also gave a selectivity ratio [3] of 1.88 and an EC50 (dengue virus type 2) of 10 µM.

`CC1(C)CC(Nc2nccc(Nc3ccc(Cl)cc3)n2)CC(C)(C)N1` gave an EC50 (Zika virus) of 2.48 µM, a selectivity ratio [1] of 1.64 and a CC50 at 72 h [2] of 5.19 µM. The selectivity ratio [3] was 2.09 and the EC50 (dengue virus type 2) was 3.15 µM.

— ChEMBL document CHEMBL5500381, “Antiviral drug discovery: Pyrimidine entry inhibitors for Zika and dengue viruses” (Eur J Med Chem, 2024)
